Data on 2 compounds can be found in US6207393A, “Inhibition of intracellular signal transduction by 14-3-3-binding peptides” (Washington University, priority 1999, dated 2001).

SMILES strings stand for the structures. Values joined by “and” are separate entries in the source; they are usually repeats but may differ in a detail not shown here. Equal entries are not always repeated. Where a SMILES comes first, the peptide text is derived from it. [ ]: non-standard residue; d: D form. pS = N[C@@H](COP(=O)(O)O)C(=O)O

Assay [1] deals with T1, 14-3-3 zeta (Homo sapiens, UniProt P63104).
T1 construct: made in house; host or cells: E. coli DH5α (vector pGEX-KT)
T1 sequence (P63104 1-245): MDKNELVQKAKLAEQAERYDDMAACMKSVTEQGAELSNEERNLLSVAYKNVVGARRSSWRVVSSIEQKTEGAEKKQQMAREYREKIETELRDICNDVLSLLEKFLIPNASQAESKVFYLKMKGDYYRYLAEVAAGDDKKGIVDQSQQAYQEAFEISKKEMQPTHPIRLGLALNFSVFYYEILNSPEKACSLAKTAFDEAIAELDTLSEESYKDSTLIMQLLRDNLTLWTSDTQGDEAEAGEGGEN
The assay can be described thus: Displacement of 32P-labeled phosphorylated Raf-259 peptide from immobilized GST/14-3-3 zeta (scintigraphy). In kind it is binding. The conditions noted are these: non-radiolabeled competitors. Here is the method: The 14-3-3 protein isoforms for use in binding studies with the above peptides were prepared as proteins fused with glutathione-S-transferase (GST) and immobilized to glutathione agarose beads. GST/14-3-3 fusion proteins were made by generating BamHI and EcoRI restriction endonuclease sites (underlined) at the 5' and 3' ends respectively of the 14-3-3 cDNAs by polymerase chain reaction (PCR) using the following isoform sequence specific pairs of primers: 14-3-3 beta, […] (SEQ ID NO: 11), […] (SEQ ID NO: 12); 14-3-3 eta […] (SEQ ID NO: 13), […] (SEQ ID NO: 14); 14-3-3 tau […] (SEQ ID NO: 15), […] (SEQ ID NO: 16); 14-3-3 zeta […] (SEQ ID NO: 17), […] (SEQ ID NO: 18). The cDNA products were digested with BamHI and EcoRI, subcloned into the vector pGEX-KT (Guan and Dixon, Anal Biochem 192: 262-7, 1991 which is incorporated by reference). The vector was used to transform the DH5α strain of E. Coli. GST-14-3-3 fusion protein expression in log-growth phase bacterial cultures was accomplished by induction with 100 μM isopropyl β-D-thiogalactopyranoside (IPTG; Gold Biotechnology, St. Louis) for 4 hours. Cells were disrupted by sonication and lysates, containing 1% Triton X-100, were incubated with glutathione agarose beads (Sigma, St. Louis) at 4° C. overnight. Fusion proteins were eluted by incubation with 10 mM reduced glutathione (Sigma, St. Louis) in phosphate buffered saline for 1 hour at room temperature, dialyzed in phosphate buffered saline and quantitated by Coomassie staining SDS polyacrylamine gels compared against bovine serum albumin standards.
The Raf-259 peptide (SEQ ID NO: 4) was phosphorylated in vitro using protein kinase A (PKA) and [^32 P]-γ-ATP following the manufacturers instruction (PKA, New England Biolabs) with 20 μCi of [^32 P]-γ-ATP (NEN-Dupont, 6000 Ci/mmol). The efficiency of phosphorylation was calculated to be between 7 and 12% based upon the specific activity of the labelled peptide.
The labeled peptide was then incubated with immobilized 14-3-3 zeta fusion protein and binding of the labelled peptide was measured. […] Binding was also sequence specific. […]

The target in assay [2] is T1, 14-3-3 zeta. The assay can be described thus: SPR competitive inhibition of 14-3-3 zeta binding to chip-coupled phosphorylated Raf-259 peptide. As to conditions: 14-3-3 zeta 0.5-1.0 μM; competitor 1-50 μM; relative affinity only. Here is the method: (§1) The ability of each peptide to inhibit binding of 14-3-3 zeta to the phosphorylated peptide was then tested in a range of concentrations between 1 and 50 μM. 14-3-3 zeta was prepared according to the methods in Example 1 and binding affinities and specificities were determined using the peptides in Table 2. The 14-3-3 zeta fusion proteins (0.5-1.0 μM) were pre-incubated with a given peptide at concentrations between 1 μM and 50 μM. 14-3-3 zeta was then infused across a sensor chip surface which had been previously coupled with the phosphorylated Raf-259 peptide (SEQ ID NO: 4). IC50 values were determined by plotting the concentration of competitor peptide required to achieve a 50% reduction in equilibrium binding.

Assay [3] has as its target T2, 14-3-3 eta (Homo sapiens, UniProt Q04917).
T2 construct: made in house; host or cells: E. coli DH5α (vector pGEX-KT)
T2 sequence (Q04917 1-246): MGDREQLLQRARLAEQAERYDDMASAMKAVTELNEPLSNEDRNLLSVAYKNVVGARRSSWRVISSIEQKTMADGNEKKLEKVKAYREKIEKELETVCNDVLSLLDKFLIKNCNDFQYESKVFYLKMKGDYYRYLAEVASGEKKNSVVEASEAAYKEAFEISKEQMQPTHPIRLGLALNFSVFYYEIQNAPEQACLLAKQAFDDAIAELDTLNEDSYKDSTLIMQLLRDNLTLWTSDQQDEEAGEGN
Description: SPR competitive inhibition of 14-3-3 eta binding to phosphorylated Raf-259 peptide. As to conditions: isoform eta. As for the experimental part: as §1
(§2) There are seven known isoforms of 14-3-3 which form homo- and heterodimers in vivo. If different isoforms of 14-3-3 could bind to proteins with distinct specificities, heterodimeric forms of 14-3-3 might function as modular linker proteins, bringing together different proteins into a single complex. We were, therefore, interested in determining whether different 14-3-3 isoforms recognize phosphoserine in a sequence specific fashion. This hypothesis was tested by expressing and purifying three other 14-3-3 isoforms, eta, beta and tau, and measuring their affinity towards the panel of phosphorylated peptides generated above. Using the Surface Plasmon Resonance method, the "on" and "off" rates for 14-3-3 binding to the phosphorylated Raf-259 peptide were calculated (Table 6).
(§3) Competitive inhibition with the mutated phosphorylated Raf-1 peptides was used to determine whether their specificities were similar (Table 7). In each case, the calculated IC50 s were very similar to those calculated for 14-3-3 zeta.

Assay [4] deals with T3, 14-3-3 beta (Homo sapiens, UniProt P31946).
T3 construct: made in house; host or cells: E. coli DH5α (vector pGEX-KT)
T3 sequence (P31946 1-246): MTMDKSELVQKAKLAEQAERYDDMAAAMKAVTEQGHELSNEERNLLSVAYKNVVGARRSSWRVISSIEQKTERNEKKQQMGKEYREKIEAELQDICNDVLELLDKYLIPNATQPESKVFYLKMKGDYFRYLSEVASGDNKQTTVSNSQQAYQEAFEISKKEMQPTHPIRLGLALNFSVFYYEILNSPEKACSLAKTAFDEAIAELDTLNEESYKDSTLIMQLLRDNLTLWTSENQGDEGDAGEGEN
Description: SPR competitive inhibition of 14-3-3 beta binding to phosphorylated Raf-259 peptide. The conditions noted are these: isoform beta. As for the experimental part: as §1, §2, §3

The target of assay [5] is T4, 14-3-3 tau (Homo sapiens, UniProt P27348).
T4 construct: made in house; host or cells: E. coli DH5α (vector pGEX-KT)
T4 sequence (P27348 1-245): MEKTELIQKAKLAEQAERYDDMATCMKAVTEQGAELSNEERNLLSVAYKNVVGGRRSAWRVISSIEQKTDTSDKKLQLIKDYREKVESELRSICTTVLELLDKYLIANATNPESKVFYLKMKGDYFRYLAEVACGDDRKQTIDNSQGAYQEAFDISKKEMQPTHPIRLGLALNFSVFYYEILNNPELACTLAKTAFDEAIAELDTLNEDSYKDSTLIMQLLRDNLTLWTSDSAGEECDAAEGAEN
Description: SPR competitive inhibition of 14-3-3 tau binding to phosphorylated Raf-259 peptide. The conditions noted are these: isoform tau. As for the experimental part:
as §1, §2, §3

Assay [6] deals with T5, 14-3-3 protein (Homo sapiens, UniProt P63104).
T5 sequence (P63104 1-245): T1 sequence (P63104 1-245)
Description: Degenerate peptide pools tested as competitive inhibitors of 14-3-3 binding. The conditions noted are these: competitor peptide 10 μM; no peptide = 100%. As for the experimental part: A series of degenerate peptides based upon phosphoserine Raf-621 peptide (SEQ ID NO: 10) were synthesized to confirm that the arginine in the -3 position, the serine in the -2 position and the proline in the +2 position were the critical motif residues (Table 5). Six pools of peptides were synthesized with all twenty amino acids placed in positions -5, -3, -2, -1, +1 and +2 respectively. Each pool of twenty peptides was tested as competitive inhibitors for binding. We reasoned that if a particular position is not critical for binding, the pool of twenty peptides should compete as well as wild-type peptide for binding. On the other hand, if a particular amino acid is required at a particular position, only a small fraction of the pool will be able to compete for binding, thus increasing (up to 20 fold) the concentration of peptide needed to inhibit binding.

`N[C@@H](COP(=O)(O)O)C(=O)O` [free phosphoserine, phosphoserine]: in assay [1], the “displacement of bound labeled phosphorylated peptide from 14-3-3 zeta” value was “Neither”.
Regarding `CC[C@H](C)[C@H](NC(=O)[C@H](CCCCN)NC(=O)[C@@H]1CCCN1C(=O)[C@@H](N)CC(C)C)C(=O)N[C@@H](CC(N)=O)C(=O)N[C@@H](CCCNC(=N)N)C(=O)N[C@@H](CO)C(=O)N[C@@H](C)C(=O)N[C@@H](COP(=O)(O)O)C(=O)N[C@@H](CCC(=O)O)C(=O)N1CCC[C@H]1C(=O)N[C@@H](CO)C(=O)N[C@@H](CC(C)C)C(=O)N[C@@H](Cc1c[nH]cn1)C(=O)N[C@@H](CCCNC(=N)N)C(=O)O` [pS-Raf-621, Leu-Pro-Lys-Ile-Asn-Arg-Ser-Ala-Xaa-Glu-Pro-Ser-Leu-His-Arg] (H-LPKINRSA[pS]EPSLHR-OH), the IC50 in assay [2] is ~1000 nM and 1000 nM; in assay [3], 3000 nM; in assay [4], 2000 nM; in assay [5], 2000 nM. In addition, in assay [6], the “% BINDING @ 10 μM” value is listed as under 5%.
